Results reported in US7468384B2, “Microbicidal composition” (Rohm and Haas Company, priority 2004, dated 2008).

Columns and labels:
Format in all cases: cell-based
S. aureus 6538 = test: Synergy test, microtiter plate high resolution MIC assay, bacterium; conditions: S. aureus 6538, TSB, 48 hours
Text: (§1) One measure of synergism is the industrially accepted method described by Kull, F. C.; Eisman, P. C.; Sylwestrowicz, H. D. and Mayer, R. L., in Applied Microbiology 9:538-541 (1961), using the ratio determined by the formula: Qa/QA+Qb/QB=Synergy Index (“SI”) wherein: • QA=concentration of compound A (first component) in ppm, acting alone, which produced an end point (MIC of Compound A). • Qa=concentration of compound A in ppm, in the mixture, which produced an end point. • QB=concentration of compound B (second component) in ppm, acting alone, which produced an end point (MIC of Compound B). • Qb=concentration of compound B in ppm, in the mixture, which produced an end point.
(§2) When the sum of Qa/QA and Qb/QB is greater than one, antagonism is indicated. […] The lower the SI, the greater the synergy shown by that particular mixture. The minimum inhibitory concentration (MIC) of a microbicide is the lowest concentration tested under a specific set of conditions that prevents the growth of added microorganisms.
(§3) Synergy tests were conducted using standard microtiter plate assays with media designed for optimal growth of the test microorganism. Soybean Casein Digest Broth (Tryptic Soy Broth, TSB medium) or minimal salt medium supplemented with 0.2% glucose and 0.1% yeast extract (M9GY medium) was used for testing bacteria; Potato Dextrose Broth (PDB medium) was used for testing yeast and mold. In this method, a wide range of combinations of microbicides was tested by conducting high resolution MIC assays in the presence of various concentrations of MI. High resolution MICs were determined by adding varying amounts of microbicide to one column of a microtitre plate and doing subsequent ten-fold dilutions using an automated liquid handling system to obtain a series of endpoints ranging from 2 ppm to 10,000 ppm active ingredient.

[1] = tested on: Pseudomonas aeruginosa (P. aeruginosa—ATCC #15442); test: as above; parameters: key to SI (calculated synergy index) / SI (synergy index): SI = Qa/QA + Qb/QB (mixture vs. alone end-point concentrations); conditions: for SI (calculated synergy index) / Qb: end-point activity (MIC) of second component in the mixture (alone, QB, where Qa = 0): Table 5; for Qb: end-point activity (MIC) of second component in the mixture (alone, QB, where Qa = 0): B = Linoleamidopropyl PG-dimonium chloride phosphate
Text: as §1, §2, §3
(§4) For MI combinations, the synergy of the combinations of the present invention was determined against two bacteria, Escherichia coli (E. coli—ATCC #8739) or Pseudomonas aeruginosa (P. aeruginosa—ATCC #15442), a yeast, Candida albicans (C. albicans—ATCC 10231), and a mold, Aspergillus niger (A. niger—ATCC 16404). The bacteria were used at a concentration of about 5×10^6 bacteria per mL and the yeast and mold at 5×10^5 fungi per mL. These microorganisms are representative of natural contaminants in many consumer and industrial applications. […] (bacteria).
(§5) For BIT combinations, the synergy of the combinations of the present invention was determined against a bacterium, Pseudomonas aeruginosa (P. aeruginosa—ATCC #15442), a yeast, Candida albicans (C. albicans—ATCC 10231), and a mold, Aspergillus niger (A. niger—ATCC 16404). The bacteria were used at a concentration of about 5×10^6 bacteria per mL and the yeast and mold at 5×10^5 fungi per mL. These microorganisms are representative of natural contaminants in many consumer and industrial applications. […] (yeast and mold) or 30° C. (bacteria).

[2] = tested on: Aspergillus niger (A. niger—ATCC 16404); test: Synergy test, microtiter plate high resolution MIC assay, mold; parameters: key to SI (calculated synergy index) / SI (synergy index): SI = Qa/QA + Qb/QB (mixture vs. alone end-point concentrations); conditions: A. niger 16404, PDB
Text: as §1, §2, §3, §4, §5

[3] = tested on: Escherichia coli (E. coli—ATCC #8739); test: Synergy test, microtiter plate high resolution MIC assay, bacterium; conditions: E. coli 8739, M9GY, 24 hours
Text: as §1, §2
as §3, with “In this method, a wide range of combinations of microbicides was tested by conducting high resolution MIC assays in the presence of various concentrations of MI.” left out
as §4

[4] = tested on: Candida albicans (C. albicans—ATCC 10231); test: Synergy test, microtiter plate high resolution MIC assay, yeast; conditions: C. albicans 10231, PDB, 24 hours
Text: as §1, §2, §3, §4, §5

[5] = P. aeruginosa 15442, M9GY, 48 hours
[6] = P. aeruginosa 15442, TSB, 48 hours
[7] = Table 5, B = Linoleamidopropyl PG-dimonium chloride phosphate

Compound: OCC(O)COc1ccc(Cl)cc1 (stereo not drawn) [Chlorphenesin]
- MIC of component acting alone (QA / QB) (S. aureus 6538): 5000 ppm
- MIC of component acting alone (QA / QB) [1, 5]: 4000 ppm
- MIC of component acting alone (QA / QB) [1, 6]: 8000 ppm
- Qb ([1]; chlorphenesin concentration giving end point (MIC), alone or mixed with BIT, P. aeruginosa 15442, M9GY, 72 hours): 8000 ppm
- SI ([1]; synergy index BIT + chlorphenesin, P. aeruginosa 15442, M9GY, 72 hours): 1.00
- MIC of component acting alone (QA / QB) ([2]; 4 days): 2000 ppm
- Qb ([2]; chlorphenesin concentration giving end point (MIC), alone or mixed with BIT, 1 week): 2000 ppm
- SI ([2]; synergy index BIT + chlorphenesin, 1 week): 1.00
- MIC of component acting alone (QA / QB) [3]: 2000 ppm
- MIC of component acting alone (QA / QB) [4]: 2000 ppm

Compound: Linoleamidopropyl PG-dimonium chloride phosphate
- SI (calculated synergy index) (S. aureus 6538; Table 5): 1.00
- Qb: end-point activity (MIC) of second component in the mixture (alone, QB, where Qa = 0) (S. aureus 6538; [7]): 40 ppm
- SI (calculated synergy index) [1, 5]: 1.00
- Qb: end-point activity (MIC) of second component in the mixture (alone, QB, where Qa = 0) [1, 5]: 10000 ppm
- SI (calculated synergy index) [1, 6]: 1.00
- Qb: end-point activity (MIC) of second component in the mixture (alone, QB, where Qa = 0) [1, 6]: 10000 ppm
- Qb (second component at end point, MIC) ([1]; Table 21, Linoleamidopropyl PG-dimonium chloride phosphate with BIT, P. aeruginosa 15442, M9GY, 48 hours, alone where Qa = 0): 10000 ppm
- SI (synergy index) ([1]; Table 21, P. aeruginosa 15442, M9GY, 48 hours): 1.00
- SI (calculated synergy index) ([2]; Table 5, 7 days): 1.00
- Qb: end-point activity (MIC) of second component in the mixture (alone, QB, where Qa = 0) ([2]; Table 5, 7 days, B = Linoleamidopropyl PG-dimonium chloride phosphate): 6000 ppm
- SI (synergy index) ([2]; Table 21, 4 days): 1.00
- Qb (second component at end point, MIC) ([2]; Table 21, Linoleamidopropyl PG-dimonium chloride phosphate with BIT, 4 days, alone where Qa = 0): 3000 ppm
- SI (calculated synergy index) ([4]; Table 5): 1.00
- Qb: end-point activity (MIC) of second component in the mixture (alone, QB, where Qa = 0) [4, 7]: 8000 ppm
